Results: US20240383954A1, “PEPTIDE INHIBITORS OF INTERLEUKIN-23 RECEPTOR AND THEIR USE TO TREAT INFLAMMATORY DISEASES” (Janssen Biotech, Inc., priority 2020, published 2024)
Starred links: 1 amine or outer side, 2 acyl side, 3 side chain; linkers in the order of their positions; H or OH if unused. Positions of bridges follow the written chain, without caps; N, C: chain ends. Non-standard residues stand in square brackets, D forms with d. Residues, ends and D or L forms follow the SMILES beside them. *: point of attachment. Trp(7-Me) = Cc1cccc2c(C[C@H](N)C(=O)O)c[nH]c12; Phe(3R-Me) = C[C@H](c1ccccc1)[C@H](N)C(=O)O; Abu(4-yl) = O=C([C@H](CC[*:3])N[*:1])[*:2]; 2Nal = N[C@@H](Cc1ccc2ccccc2c1)C(=O)O; AEF = NCCOc1ccc(C[C@H](N)C(=O)O)cc1; αMeF = C[C@](N)(Cc1ccccc1)C(=O)O; Pen = CC(C)(S)[C@H](N)C(=O)O; Ac5c = NC1(C(=O)O)CCCC1; Thp = NC1(C(=O)O)CCOCC1; Aib = CC(C)(N)C(=O)O; Propionyl = CCC(=O)*

Molecular target: IL-23R (Homo sapiens, UniProt Q5VWK5)
Sequence (Q5VWK5 24-629): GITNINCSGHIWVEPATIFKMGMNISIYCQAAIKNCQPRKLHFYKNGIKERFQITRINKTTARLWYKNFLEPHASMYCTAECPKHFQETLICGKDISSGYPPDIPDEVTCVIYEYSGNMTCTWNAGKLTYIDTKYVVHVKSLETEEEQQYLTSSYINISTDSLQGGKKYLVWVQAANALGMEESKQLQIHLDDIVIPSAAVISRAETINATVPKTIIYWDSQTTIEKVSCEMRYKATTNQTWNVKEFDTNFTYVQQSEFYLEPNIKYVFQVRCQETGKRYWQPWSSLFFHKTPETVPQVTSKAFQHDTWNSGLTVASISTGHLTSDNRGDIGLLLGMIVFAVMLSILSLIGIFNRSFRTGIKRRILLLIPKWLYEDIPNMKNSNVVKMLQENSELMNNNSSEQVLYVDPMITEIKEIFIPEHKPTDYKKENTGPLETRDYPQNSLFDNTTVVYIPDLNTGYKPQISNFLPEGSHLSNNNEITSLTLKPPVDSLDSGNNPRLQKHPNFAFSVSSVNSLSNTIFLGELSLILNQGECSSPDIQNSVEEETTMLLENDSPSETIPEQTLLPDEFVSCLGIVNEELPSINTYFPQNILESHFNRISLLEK
Assay: cell-based
Conditions: PBMC pSTAT3 IC50 (nM), PBMCs from healthy donors, IL-23 5 ng/mL, 30 minutes, phosphorylated STAT3
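Further: cryopreserved PBMCs stimulated at 37 °C in 5% CO2, then lysed, with phosphorylated STAT3 quantified in lysates using a phospho-STAT panel kit.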

Experimental: Cryopreserved peripheral blood mononuclear cells (PBMCs) from healthy donors were thawed and washed twice in ImmunoCult-XF T cell expansion medium (XF-TCEM) supplemented with CTL anti-aggregate wash. […] The cells were stimulated with cytokine for 30 minutes at 37° C. in 5% CO2, transferred onto ice for 10 minutes, and lysed. Cell lysates were stored at −80° C. until phosphorylated STAT3 was measured using the phospho-STAT panel kit (Meso Scale Discovery, K15202D).

## CC(=O)NCCCC[C@@H]1NC(=O)[C@H](Cc2c[nH]c3c(C)cccc23)NC(=O)[C@H]([C@@H](C)O)NC(=O)[C@H](CC(N)=O)NC(=O)[C@@H](NC(=O)[C@@H](CCCNC(=N)N)NC(C)=O)C(C)(C)SSC(C)(C)[C@@H](C(=O)N[C@@H](Cc2ccc(OCCN)cc2)C(=O)N[C@@H](Cc2ccc3ccccc3c2)C(=O)NC2(C(=O)N[C@@H](CCC(=O)O)C(=O)N[C@@H](CC(N)=O)C(=O)N[C@H](C(N)=O)[C@H](C)c3ccccc3)CCOCC2)NC1=O [Compound 313, MeCO-r-Pen-N-T-7MeTrp-K(Ac)-Pen-AEF-2Nal-THP-E-N-bMePhe(S,R)---CONH2] (Ac-[dR][Pen]NT[Trp(7-Me)]K(Ac)[Pen][AEF][2Nal][Thp]EN[Phe(3R-Me)]-NH2; disulfide 2-7)
  IC50: 21 nM

## CC(=O)NCCCC[C@@H]1NC(=O)[C@H](Cc2c[nH]c3c(C)cccc23)NC(=O)[C@H]([C@@H](C)O)NC(=O)[C@H](CC(N)=O)NC(=O)[C@@H](NC(=O)[C@@H](CCCNC(=N)N)NC(C)=O)C(C)(C)SSC(C)(C)[C@@H](C(=O)N[C@@H](Cc2ccc(OCCN)cc2)C(=O)N[C@@H](Cc2ccc3ccccc3c2)C(=O)NC2(C(=O)N[C@@H](CCC(=O)O)C(=O)N[C@@H](CC(N)=O)C(=O)N[C@@](C)(Cc3ccccc3)C(N)=O)CCOCC2)NC1=O [Compound 77, Ac-[(D)Arg]-[Pen]-N-T-[W(7-Me)]-[Lys(Ac)]-[Pen]-Phe[4-(2-aminoethoxy)]-[2-Nal]-[THP]-E-N-[a-MePhe]-NH2] (Ac-[dR][Pen]NT[Trp(7-Me)]K(Ac)[Pen][AEF][2Nal][Thp]EN[αMeF]-NH2; disulfide 2-7)
  IC50: 6.4 nM

## CC(=O)NCCCC[C@@H]1NC(=O)[C@H](Cc2c[nH]c3c(C)cccc23)NC(=O)[C@H]([C@@H](C)O)NC(=O)[C@H](CC(N)=O)NC(=O)[C@@H](NC(C)=O)C(C)(C)SSC(C)(C)[C@@H](C(=O)N[C@@H](Cc2ccc(OCCN)cc2)C(=O)N[C@@H](Cc2ccc3ccccc3c2)C(=O)N[C@@](C)(CCCCN)C(=O)N[C@@H](CCCCNC(C)=O)C(=O)N[C@@H](CC(N)=O)C(=O)NC2(C(N)=O)CCOCC2)NC1=O [Compound 75, Ac-[Pen]-N-T-[W(7-Me)]-[Lys(Ac)]-[Pen]-Phe[4-(2-aminoethoxy)]-[2-Nal]-[a-MeLys]-[Lys(Ac)]-N-[THP]-NH2]
  IC50: 8.9 nM

## CC(=O)NCCCC[C@H](NC(=O)[C@](C)(CCCCN)NC(=O)[C@H](Cc1ccc2ccccc2c1)NC(=O)[C@H](Cc1ccc(OCCN)cc1)NC(=O)[C@]1(C)CSSC[C@H](NC(C)=O)C(=O)N[C@@H](CC(N)=O)C(=O)N[C@@H]([C@@H](C)O)C(=O)N[C@@H](Cc2c[nH]c3c(C)cccc23)C(=O)N[C@@H](CCC(N)=O)C(=O)N1)C(=O)N[C@@H](CC(N)=O)C(=O)N[C@@](C)(Cc1ccccc1)C(N)=O [Compound 119, Ac-[Cys]-N-T-[W(7-Me)]-Q-[aMeCys]-Phe[4-(2-aminoethoxy)]-[2-Nal]-[a-MeLys]-[Lys(Ac)]-N-[a-MePhe]-NH2]
  IC50: 5.3 nM

## CC(=O)NCCCC[C@H](NC(=O)[C@](C)(CCCCN)NC(=O)[C@H](Cc1ccc2ccccc2c1)NC(=O)[C@H](Cc1ccc(OCCN)cc1)NC(=O)[C@H]1NC(=O)[C@H](CCC(N)=O)NC(=O)[C@H](Cc2c[nH]c3c(C)cccc23)NC(=O)[C@H]([C@@H](C)O)NC(=O)[C@H](CC(N)=O)NC(=O)[C@@H](NC(C)=O)C(C)(C)SSC1(C)C)C(=O)N[C@@H](CC(N)=O)C(=O)NC1(C(N)=O)CCOCC1 [Compound 87, Ac-[Pen]-N-T-[W(7-Me)]-Q-[Pen]-Phe[4-(2-aminoethoxy)]-[2-Nal]-[a-MeLys]-[Lys(Ac)]-N-[THP]-NH2]
  IC50: 3.6 nM

## CCC(=O)N[C@H](CCCNC(=N)N)C(=O)N[C@@H]1C(=O)N[C@@H](CCC(N)=O)C(=O)N[C@@H]([C@@H](C)O)C(=O)N[C@@H](Cc2c[nH]c3ccccc23)C(=O)N[C@@H](CCC(N)=O)C(=O)N[C@H](C(=O)N[C@@H](Cc2ccc(OCCN)cc2)C(=O)N[C@@H](Cc2ccc3ccccc3c2)C(=O)NC2(C(=O)N[C@@H](CCC(=O)O)C(=O)N[C@@H](CC(N)=O)C(=O)N[C@@](C)(Cc3ccccc3)C(N)=O)CCOCC2)C(C)(C)SSC1(C)C [Compound 3, [Propionic_acid]-[(D)Arg]-[Pen]-Q-T-W-Q-[Pen]-Phe[4-(2-aminoethoxy)]-[2-Nal]-[THP]-E-N-[a-MePhe]-NH2] (Propionyl-[dR][Pen]QTWQ[Pen][AEF][2Nal][Thp]EN[αMeF]-NH2; disulfide 2-7)
  IC50: 40 nM

## CC(=O)N[C@H](CCCNC(=N)N)C(=O)N[C@@H]1C(=O)N[C@@H](CC(N)=O)C(=O)N[C@@H]([C@@H](C)O)C(=O)N[C@@H](Cc2c[nH]c3c(C)cccc23)C(=O)N[C@@H](CCC(N)=O)C(=O)N[C@H](C(=O)N[C@@H](Cc2ccc(OCCN)cc2)C(=O)N[C@@H](Cc2ccc3ccccc3c2)C(=O)NC2(C(=O)N[C@@H](CCC(=O)O)C(=O)N[C@@H](CC(N)=O)C(=O)N[C@@](C)(Cc3ccccc3)C(N)=O)CCOCC2)C(C)(C)SSC1(C)C [Compound 91, Ac-[(D)Arg]-[Pen]-N-T-[W(7-Me)]-Q-[Pen]-Phe[4-(2-aminoethoxy)]-[2-Nal]-[THP]-E-N-[a-MePhe]-NH2] (Ac-[dR][Pen]NT[Trp(7-Me)]Q[Pen][AEF][2Nal][Thp]EN[αMeF]-NH2; disulfide 2-7)
  IC50: 4.1 nM

## CC(=O)N[C@H](CCCNC(=N)N)C(=O)N[C@H]1CCSC[C@@H](C(=O)N[C@@H](Cc2ccc(OCCN)cc2)C(=O)N[C@@H](Cc2ccc3ccccc3c2)C(=O)NC2(C(=O)NC(C)(C)C(=O)N[C@@H](CC(N)=O)C(=O)N[C@@H](Cc3ccccc3)C(N)=O)CCOCC2)NC(=O)[C@H](CCC(N)=O)NC(=O)[C@H](Cc2c[nH]c3ccccc23)NC(=O)[C@H]([C@@H](C)O)NC(=O)[C@H](CCC(N)=O)NC1=O [Compound 49, Ac-[(D)Arg]-[Abu]-Q-T-W-Q-[Cys]-Phe[4-(2-aminoethoxy)]-[2-Nal]-[THP]-[Aib]-N-F-NH2] (Ac-[dR][Abu(4-yl)]QTWQC[AEF][2Nal][Thp][Aib]NF-NH2; thioether 2-7)
  IC50: 18 nM

## CC(=O)NCCCC[C@@H]1NC(=O)[C@H](Cc2c[nH]c3ccccc23)NC(=O)[C@H]([C@@H](C)O)NC(=O)[C@H](CC(N)=O)NC(=O)[C@@H](NC(C)=O)CSSC[C@@](C)(C(=O)N[C@@H](Cc2ccc(OCCN)cc2)C(=O)N[C@@H](Cc2ccc3ccccc3c2)C(=O)N[C@@](C)(CCCCN)C(=O)N[C@@H](CCCCNC(C)=O)C(=O)N[C@@H](CC(N)=O)C(=O)NC2(C(N)=O)CCOCC2)NC1=O [Compound 121, Ac-[Cys]-N-T-W-[Lys(Ac)]-[aMeCys]-Phe[4-(2-aminoethoxy)]-[2-Nal]-[a-MeLys]-[Lys(Ac)]-N-[THP]-NH2]
  IC50: 41 nM

## CC(=O)NCCCC[C@@H]1NC(=O)[C@H](Cc2c[nH]c3c(C)cccc23)NC(=O)[C@H]([C@@H](C)O)NC(=O)[C@H](CC(N)=O)NC(=O)[C@@H](NC(C)=O)C(C)(C)SSC(C)(C)[C@@H](C(=O)N[C@@H](Cc2ccc(OCCN)cc2)C(=O)N[C@@H](Cc2ccc3ccccc3c2)C(=O)N[C@@](C)(CCCCN)C(=O)N[C@@H](CCCCNC(C)=O)C(=O)N[C@@H](CC(N)=O)C(=O)N[C@@](C)(Cc2ccc(O)cc2)C(N)=O)NC1=O [Compound 151, Ac-[Pen]-N-T-[W(7-Me)]-[Lys(Ac)]-[Pen]-Phe[4-(2-aminoethoxy)]-[2-Nal]-[a-MeLys]-[Lys(Ac)]-N-[aMeTyr]-NH2]
  IC50: 5.7 nM

## COc1ccc(C[C@@H](NC(=O)[C@H](CC(N)=O)NC(=O)[C@](C)(CCC(=O)O)NC(=O)C2(NC(=O)[C@H](Cc3ccc4ccccc4c3)NC(=O)[C@H](Cc3ccc(OCCN)cc3)NC(=O)[C@@H]3CSCC[C@H](NC(=O)[C@@H](CCCNC(=N)N)NC(C)=O)C(=O)N[C@@H](CCC(N)=O)C(=O)N[C@@H]([C@@H](C)O)C(=O)N[C@@H](Cc4c[nH]c5ccccc45)C(=O)N[C@@H](CCC(N)=O)C(=O)N3)CCOCC2)C(N)=O)cc1OC [Compound 79, Ac-[(D)Arg]-[Abu]-Q-T-W-Q-[Cys]-Phe[4-(2-aminoethoxy)]-[2-Nal]-[THP]-[aMeGlu]-N-[(D)Phe(3,4-diOMe)]-NH2]
  IC50: 25 nM

## CC(=O)NCCCC[C@H](NC(=O)C1(NC(=O)[C@H](Cc2ccc3ccccc3c2)NC(=O)[C@H](Cc2ccc(OCCN)cc2)NC(=O)[C@H]2NC(=O)[C@H](CCC(N)=O)NC(=O)[C@H](Cc3c[nH]c4ccccc34)NC(=O)[C@H]([C@@H](C)O)NC(=O)[C@H](CCC(N)=O)NC(=O)[C@@H](NC(=O)[C@@H](CCCNC(=N)N)NC(C)=O)C(C)(C)SSC2(C)C)CCOCC1)C(=O)N[C@@H](CC(N)=O)C(=O)N[C@@H](Cc1ccccc1)C(N)=O [Compound 53, Ac-[(D)Arg]-[Pen]-Q-T-W-Q-[Pen]-Phe[4-(2-aminoethoxy)]-[2-Nal]-[THP]-[Lys(Ac)]-N-F-NH2] (Ac-[dR][Pen]QTWQ[Pen][AEF][2Nal][Thp]K(Ac)NF-NH2; disulfide 2-7)
  IC50: 29 nM

## CC(=O)N[C@H](CCCNC(=N)N)C(=O)N[C@@H]1C(=O)N[C@@H](CC(N)=O)C(=O)N[C@@H]([C@@H](C)O)C(=O)N[C@@H](Cc2c[nH]c3c(C)cccc23)C(=O)N[C@@H](CCC(N)=O)C(=O)N[C@H](C(=O)N[C@@H](Cc2ccc(OCCN)cc2)C(=O)N[C@@H](Cc2ccc3ccccc3c2)C(=O)NC2(C(=O)N[C@@H](CCC(=O)O)C(=O)N[C@@H](CC(N)=O)C(=O)N[C@@](C)(Cc3ccccc3)C(N)=O)CCCC2)C(C)(C)SSC1(C)C [Compound 93, Ac-[(D)Arg]-[Pen]-N-T-[W(7-Me)]-Q-[Pen]-Phe[4-(2-aminoethoxy)]-[2-Nal]-[Acvc]-E-N-[a-MePhe]-NH2] (Ac-[dR][Pen]NT[Trp(7-Me)]Q[Pen][AEF][2Nal][Ac5c]EN[αMeF]-NH2; disulfide 2-7)
  IC50: 4.6 nM

## CC(=O)NCCCC[C@@H]1NC(=O)[C@H](Cc2c[nH]c3c(C)cccc23)NC(=O)[C@H]([C@@H](C)O)NC(=O)[C@H](CC(N)=O)NC(=O)[C@@H](NC(C)=O)CSSC[C@@](C)(C(=O)N[C@@H](Cc2ccc(OCCN)cc2)C(=O)N[C@@H](Cc2ccc3ccccc3c2)C(=O)N[C@@](C)(CCCCN)C(=O)N[C@@H](CCCCNC(C)=O)C(=O)N[C@@H](CC(N)=O)C(=O)NC2(C(N)=O)CCOCC2)NC1=O [Compound 117, Ac-[Cys]-N-T-[W(7-Me)]-[Lys(Ac)]-[aMeCys]-Phe[4-(2-aminoethoxy)]-[2-Nal]-[a-MeLys]-[Lys(Ac)]-N-[THP]-NH2]
  IC50: 7.1 nM
